The source of these data is US5430018A, “Cyclohexapeptide with basic nitrogen containing alkylamide groups” (priority 1991, dated 1995).

Converted amounts (≈) assume the structure as drawn. Numbered stars: 1 amine (or outer) side, 2 acyl side, 3 side chain; on linkers, the order of the positions; unused ones are H or OH. Bridge positions count the residues as written; N and C are the ends. Square brackets hold non-standard residues; d marks the D form. Peptide text beside a SMILES is read from it. * marks the point of attachment. Tetradecanoyl(10R,12S-Me2) = CC[C@H](C)C[C@H](C)CCCCCCCCC(=O)*; Orn(4R-OH) = O=C([C@H](C[C@@H](O)CN[*:3])N[*:1])[*:2]; hTyr(3R-OH) = N[C@H](C(=O)O)[C@H](O)Cc1ccc(O)cc1; X1 = COC(=O)C[C@@H](O)[C@H](N[*:1])C(=O)[*:2]; X2 = O=C(O)C[C@@H](O)[C@H](N[*:1])C(=O)[*:2]; Pro(3S-OH) = O=C(O)[C@H]1NCC[C@@H]1O; Hyp = O=C(O)[C@@H]1C[C@@H](O)CN1

The test system of assay [1] is C. albicans MY 1055. Format: cell-based, Candida albicans. The following applies: MY 1055, 24 h. How it is done: The compounds of the present invention are active against many fungi and particularly against Candida species. The antifungal properties maybe illustrated with the minimum fungicidal concentration (MFC) determination against certain Candida organisms in a microbroth dilution assay carried out in a Yeast Nitrogen Base (Difco) medium with 1% dextrose (YNBD). In separate assays, the compounds (all Seq. ID No. 1) were solubilized in 10% dimethyl sulfoxide (DMSO) and diluted to 2560 μg/ml. The solution was then diluted to 256 μg/ml in YNBD and dispensed via a multichannel pipetter into the top row of a 96-well plate (each well containing 0.15 ml of YNBD), resulting in a drug concentration of 128 μg/ml. Compounds in the top row were diluted 2-fold down the columns yielding final drug concentrations ranging from 128-0.06 μg/ml. All tests were performed in duplicate. A four-hour broth culture of C. albicans MY 1055 was adjusted using a spectrophotometer at 530 nm to equal a 0.5 McFarland Standard. This yields a cell concentration of 1-5×10^6 colony forming units (CFU)/ml. The 96-well microplates were inoculated using an MIC-2000 (Dynatech), which delivers […] per well, yielding a final inoculum per well of 1.5-7.5×10^3 cells. One column per tray containing drug-free growth control wells was included. […]

The test system of assay [2] is C. albicans MY 1028. Type of assay: cell-based, Candida albicans. The following applies: MY 1028, 24 h.

Take `CC[C@H](C)C[C@H](C)CCCCCCCCC(=O)N[C@H]1C[C@@H](O)CNC(=O)[C@@H]2[C@@H](O)CCN2C(=O)[C@H]([C@H](O)CC(=O)O)NC(=O)[C@H]([C@H](O)Cc2ccc(O)cc2)NC(=O)[C@@H]2C[C@@H](O)CN2C(=O)[C@H]([C@@H](C)O)NC1=O` [acid] ({Tetradecanoyl(10R,12S-Me2)}-[Orn(4R-OH)]T[Hyp][hTyr(3R-OH)][X2][Pro(3S-OH)]; lactam 1-C): the “MFC C. albicans MY 1055” value in assay [1] came out at 0.5 µg/mL (≈ 0.483 µM). In assay [2], the “MFC C. albicans MY 1028” value was determined as 1 µg/mL (≈ 0.967 µM).

With `CC[C@H](C)C[C@H](C)CCCCCCCCC(=O)N[C@H]1C[C@@H](O)CNC(=O)[C@@H]2[C@@H](O)CCN2C(=O)[C@H]([C@H](O)CC(=O)OC)NC(=O)[C@H]([C@H](O)Cc2ccc(O)cc2)NC(=O)[C@@H]2C[C@@H](O)CN2C(=O)[C@H]([C@@H](C)O)NC1=O` [methyl ester] ({Tetradecanoyl(10R,12S-Me2)}-[Orn(4R-OH)]T[Hyp][hTyr(3R-OH)][X1][Pro(3S-OH)]; lactam 1-C), the “MFC C. albicans MY 1055” value in assay [1] was 0.5 µg/mL (≈ 0.477 µM). Moreover, the “MFC C. albicans MY 1028” value in assay [2] turned out to be 0.25 µg/mL (≈ 0.238 µM).
